Test results published in patent US11584766B2, “Nicotinamide phosphoribosyltransferase inhibitors and methods for use of the same” (THE TRUSTEES OF INDIANA UNIVERSITY, priority 2018, dated 2023).
Structures can show the parent of a compound that is named as a salt.

molecular target: T1, NAMPT (Homo sapiens, UniProt P43490); assay: CycLex NAMPT Colorimetric Assay; type: biochemical; conditions: not given
T1 construct: purchased MBL International Corporation (CycLex NAMPT Colorimetric Assay Kit Ver.2)
Protocol: The ability of the compounds of the disclosure to inhibit NAMPT was determined using the CycLex NAMPT Colorimetric Assay Kit Ver.2 by MBL International Corporation.
The assay detects NAMPT activity in recombinant NAMPT or endogenous NAMPT immunoprecipiated from cell lysates according to the scheme shown in FIG. 3. In this method, NAMPT converts nicotinamide to nicotinamide mononucleotide (“NMN”). Subsequently, nicotinamide mononucleotide adenylyltransferase 1 (“NMNAT1”) converts NMN to NAD^+. Resultant NAD^+ can be measured by enzyme cycling reaction using alcohol dehydrogenase (“ADH”), diaphorase and WST-1.

T1 sequence (P43490 whole entry): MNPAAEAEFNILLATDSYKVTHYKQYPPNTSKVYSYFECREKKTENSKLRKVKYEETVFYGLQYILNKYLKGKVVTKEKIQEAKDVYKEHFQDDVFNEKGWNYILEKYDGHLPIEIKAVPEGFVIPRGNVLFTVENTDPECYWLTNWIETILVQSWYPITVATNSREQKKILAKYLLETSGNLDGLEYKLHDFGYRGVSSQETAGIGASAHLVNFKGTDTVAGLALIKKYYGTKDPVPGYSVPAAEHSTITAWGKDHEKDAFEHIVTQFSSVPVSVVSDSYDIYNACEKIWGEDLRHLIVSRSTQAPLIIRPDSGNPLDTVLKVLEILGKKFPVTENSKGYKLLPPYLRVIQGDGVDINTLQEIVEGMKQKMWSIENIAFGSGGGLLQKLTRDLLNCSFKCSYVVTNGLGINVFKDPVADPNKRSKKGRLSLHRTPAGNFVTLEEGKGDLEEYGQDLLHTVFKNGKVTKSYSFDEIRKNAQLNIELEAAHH

Compound | inhibition at 10 µM [%]
CCOC(=O)Cc1cn(CCCCCCNC(=O)/C=C/c2cccnc2)c2ccccc12 [DGMS-RAR-PEG2E] | 99
O=C(/C=C/c1cccnc1)NCCCCCCn1ccc2cc(OCc3ccccc3)ccc21 [DGMS-RAR-6•HCl] | 97

same assay, conditions: 10 μM

Compound | % NAMPT Inhibition at 10 μM [%]
O=C(/C=C/c1cccnc1)NCCCCCCn1c(-c2ccccc2)cc2ccccc21 [DGMS-RARI•HO3SMe] | 98

same assay, conditions: CycLex NAMPT Colorimetric Assay Kit; read-out: NAMPT Inhibition IC50

Compound | IC50 [nM]
O=C(CCc1cccnc1)NCCCCCCn1ccc2cccnc21 | 2400
O=C(/C=C/c1cccnc1)NCCCCCC(=O)N1CCCCc2ccccc21 [DGMS-RAR-3] | 72
CC1Cc2ccccc2N1C(=O)CCCCCNC(=O)/C=C/c1cccnc1 (centres unmarked) [DGMS-RAR-1•HO3SMe] | 34
O=C(CCc1cccnc1)NCCCCCCn1ccc2cc(OCc3ccccc3)ccc21 [DGMS-RAR-6 H2] | 582
[2H][C@@H](C(=O)NCCCCCCn1c(-c2ccccc2)cc2ccccc21)[C@@H]([2H])c1cccnc1 | 92
CCOC(=O)Cc1cn(CCCCCCNC(=O)/C=C/c2cccnc2)c2ccccc12 [DGMS-RAR-PEG2E] | < 10
O=C(/C=C/c1cccnc1)NCCCCCCN1c2ccccc2CC1c1ccccc1 (centres unmarked) [5.2.3e] | 26
O=C(/C=C/c1cccnc1)NCCCCCCn1ccc2cc(OCc3ccccc3)ccc21 [DGMS-RAR-6] | 1010
O=C(CCc1cccnc1)NCCCCCCN1c2ccccc2CCc2ccccc21 [DGMS-RAR-5.2.3c H2] | 100
[2H][C@@H](C(=O)NCCCCCCn1ccc2cc(OCc3ccccc3)ccc21)[C@@H]([2H])c1cccnc1 (relative stereo) [DGMS-RAR-6 D2] | 233
O=C(/C=C/c1cccnc1)NCCCCCCn1ccc2cc(I)ccc21 [5.2.3l] | 155
O=C(CCc1cccnc1)NCCCCCCn1ccc2ccncc21 [5.2.3b H2] | 2140
CCOC(=O)CC1CN(C(=O)CCCCCNC(=O)/C=C/c2cccnc2)c2ccccc21 (centres unmarked) [DGMS-RAR-PEG3E] | 44
CC1Cc2ccccc2N1CCCCCCNC(=O)/C=C/c1cccnc1 (centres unmarked) [DGMS-RAR-1•HCl] | 47
O=C(/C=C/c1cccnc1)NCCCCCCn1ccc2ccncc21 [5.2.3b] | 230
O=C(/C=C/c1cccnc1)NCCCCCCn1ccc2cccnc21 | 1540
CC1Cc2ccccc2N1C(=O)CCCCCNC(=O)/C=C/c1cccnc1 (centres unmarked) [DGMS-RAR1] | 49
O=C(/C=C/c1cccnc1)NCCCCCCn1c(-c2ccccc2)cc2ccccc21 [DGMS-RARI•HO3SMe] | 12

Compound | IC50 [nM]
CC[Si]1(CC)c2ccccc2N(C(=O)CCCCCNC(=O)/C=C/c2cccnc2)C1C (centres unmarked) [DGMS-RAR-5•OTs] | 10.3
O=C(/C=C/c1cccnc1)NCCCCCCn1ccc2cnccc21 [5.2.3k] | 110
Cc1ccc2c(ccn2CCCCCCNC(=O)/C=C/c2cccnc2)c1 [5.2.3g] | 170
CC[Si]1(CC)c2ccccc2N(C(=O)CCCCCNC(=O)CCc2cccnc2)C1C (centres unmarked) [DGMS-RAR-5H2] | 368
[2H][C@@H](C(=O)NCCCCCC(=O)N1c2ccccc2CC1C)[C@@H]([2H])c1cccnc1 (some centres unmarked) [DGMS-RAR-1 D2] | 632
COc1ccc2c(ccn2CCCCCCNC(=O)CCc2cccnc2)c1 | 674
C[Si]1(C)CN(C(=O)CCCCCNC(=O)CCc2cccnc2)c2ccccc21 [DGMS-RAR-4H2] | 1590
O=C(/C=C/c1cccnc1)NCCCCCCn1c(-c2ccccc2)cc2cc(O)c(O)cc21 | 124
O=C(/C=C/c1cccnc1)NCCCCCCn1c(-c2ccccc2)cc2cc3c(cc21)OCO3 | 386
[2H][C@@H](C(=O)NCCCCCC(=O)N1C[Si](C)(C)c2ccccc21)[C@@H]([2H])c1cccnc1 [DGMS-RAR-4D2] | 2310
Cc1ccc2c(ccn2CCCCCCNC(=O)CCc2cccnc2)c1 | 1530
O=C(/C=C/c1cccnc1)NCCCCCCn1ccc2cc(OCc3ccccc3)ccc21 [DGMS-RAR-6•HCl] | ~100
[2H][C@@H](C(=O)NCCCCCC(=O)N1CCc2cc(O)ccc21)[C@@H]([2H])c1cccnc1 | 189
C[Si]1(C)CN(C(=O)CCCCCNC(=O)/C=C/c2cccnc2)c2ccccc21 [DGMS-RAR-4] | 141
O=C(CCc1cccnc1)NCCCCCCn1c(-c2ccccc2)cc2ccccc21 | ~10000
O=C(O)CC1CN(C(=O)CCCCCNC(=O)/C=C/c2cccnc2)c2ccccc21 (centres unmarked) [DGMS-RAR-PEG3A] | 1050
Cc1cc2ccccc2n1CCCCCCNC(=O)/C=C/c1cccnc1 [5.2.3a] | 82
